Data published in EP0966972B1, “Topical composition containing silicon gum” (Dow Corning France S.A., priority 1998, dated 1999).

Experiment: Substantivity of silicone gum formulation on skin (FT-IR/ATR)
Format: in vivo, human
Conditions: 10 seconds after spraying
Procedure: The forearms of volunteers were cleaned and then sprayed in several areas with the formulation of Example 4. […] A FT-IR/ATR cell was used to take an IR spectrum at each area sprayed. […] An IR of the cleansed forearm skin was used as a control blank. The percentage of silicone remaining on the skin was calculated by comparing the height of the specific silicon peak height (1255 cm^-1)/ specific skin peak height (1538 cm^-1) in the blank test.

With `C[Si](C)(C)O[Si](C)(C)C` [HMDS, hexamethyldisiloxane] as the compound, how does the “detectability on the skin” value read?
The value was “not detectable”.
